Assay results from patent US20200163984A1, “USE OF ISOVALERYL SPIRAMYCIN I, II AND/OR III IN MANUFACTURING MEDICAMENT FOR TREATING AND/OR PREVENTING TUMOR, AND MEDICAMENT” (SHENYANG FUYANG PHARMACEUTICAL TECHNOLOGY CO., LTD., priority 2017, published 2020).
≈ marks a conversion by molar mass, not a printed value.

What was measured:
[1] = tested on: transplanted tumor of human renal cell adenocarcinoma cell 769-P; experiment: 769-P transplanted tumor in nude mice; details: for Tumor Volume (mm3) (d 1): d1
Method: (§1) Then cell concentration was adjusted to 1×10^7/ml with matrigel, then each nude mouse was inoculated subcutaneously with 0.2 ml of cells at its right armpit and recorded as the first day of inoculation. When the tumor grows to be greater than or equal to 100 mm^3, the mice were randomly divided into 11 groups with 6 mice in each group: a model group, a cyclophosphamide group, isovaleryl spiramycin I groups with doses of 25, 50 and 100 mg/kg, isovaleryl spiramycin II groups with doses of 25, 50 and 100 mg/kg, and isovaleryl spiramycin III groups with doses of 25, 50 and 100 mg/kg. Each group was continuously administered intragastrically for 30 days with a dose of 20 ml/kg. The mice were sacrificed the next day after drug withdrawal and the indicators were tested. The long diameter and short diameter of the tumor, and the weight of each mouse were recorded every 3 days from drug administration to nude mouse sacrifice.
(§2) The body weight of the nude mice and the long diameter (a) and short diameter (b) of the transplanted tumor were measured every 3 days, and the tumor volume (v), relative tumor volume (RTV) and relative tumor proliferation rate (T/C) are calculated respectively according to the following formulas, wherein V=a×b^2/2; RTV=V/V0 (V0 is the tumor volume before administration, V is the tumor volume before sacrifice), and T/C (%)=treatment group RTV/model control group RTV×100%.
(§3) Each mouse was weighed and sacrificed. After the tumor was completely stripped off from the body of the mouse, the non-tumor tissues such as blood stains and fat were removed to weigh the tumor and calculate the tumor growth inhibition rate. The average tumor weight of each group of mice is used as an indicator of efficacy. Tumor growth inhibition rate (%)=(1−the average tumor weight of the treatment group/the average tumor weight of the model group)×100%.

[2] = tested on: human promyelocytic leukemia cell HL-60; details: HL-60, MTT, 48 h
Method: The purpose of the assay is to evaluate the in vitro cell proliferation inhibition or cytotoxic activity of a tested sample.
U937 and HL-60 were suspension cells, and cells in a logarithmic growth phase were selected and prepared into a 2×10^5/ml cell suspension by a RPMI 1640 culture medium containing 10% fetal bovine serum. And the cell suspension was inoculated in a 96-well culture plate, and each well was 50 μL and the 96-well culture plate was cultured at 37° C. and 5% CO2 for 24 hours. 50 μL of a culture medium containing different concentrations of the tested sample isovaleryl spiramycin I, isovaleryl spiramycin II, or isovaleryl spiramycin III was added in the experimental group, while a culture medium containing the same volume of solvent was added into the control group. Each group was set up with 3 parallel wells that were cultured at 37° C. and 5% CO2 for 48 h. And 10 μL of freshly prepared medium containing 5 mg/ml MTT was added into each well for continuous incubation for 4 hours at 37° C. The crystals were dissolved in 100 μL of a triple solution (SDS 10 g, 10 M HCl 0.1 mL, isobutanol 5 mL, diluted with distilled water to 100 mL), and incubated at 37° C. for 12 hours. The optical density value was measured at 492 nm with a microplate reader.
The inhibition rate of the medicament on tumor cell growth is calculated according to the following formula:
Tumor cell growth inhibition rate (%)=[A492 (negative control)−A492 (dosing group)]/A492 (negative control)×100%
And the half-inhibitory concentration (IC50) of the sample is determined therefrom.

[3] = Thymus index and spleen index of H22 liver cancer tumor-bearing mice
Method: In the H22 liver cancer model, the mice inoculated with the tumor were randomly divided into groups with 10 mice in each group on the next day of inoculation. The groups included: a model control group, a positive drug cyclophosphamide control group (CTX, 26 mg/kg), isovaleryl spiramycin I groups with doses of 13, 26 and 52 mg/kg; isovaleryl spiramycin II groups with doses of 13, 26 and 52 mg/kg; isovaleryl spiramycin III groups with doses of 13, 26 and 52 mg/kg. Each group was continuously administered intragastrically for 7 days with a dose of 20 ml/kg.

[4] = tested on: transplanted tumor of human glioma cell U251; experiment: U251 transplanted tumor in nude mice; details: for Tumor Volume (mm3) (d 1): d1
Method: as §1, with “U251 cells in a logarithmic growth phase were taken and subjected to a trypan blue exclusion experiment showing that the cell viability was more than 95%, then the cells were subjected to trypsinization, centrifugation, and supernatant removal. Then cell” for “Then cell”, “and the body weight of” for “and the weight of”
as §2, §3

[5] = 769-P, high dose (100 mg/kg in method) i.g. 30 days
[6] = 769-P, low dose (25 mg/kg in method) i.g. 30 days
[7] = 769-P, medium dose (50 mg/kg in method) i.g. 30 days
[8] = U251, high dose (100 mg/kg in method) i.g. 30 days
[9] = U251, low dose (25 mg/kg in method) i.g. 30 days
[10] = U251, medium dose (50 mg/kg in method) i.g. 30 days

mouse weight compared with the model group ([1]; mouse, in vivo): no significant changes
IC50 [2]: 21.38 ± 1.75 µg/mL (≈ 21.7 µM)
mouse weight compared with the model group ([4]; mouse, in vivo): no significant changes
SMILES: CCC(=O)O[C@@H]1CC(=O)O[C@H](C)C/C=C/C=C/[C@H](O[C@H]2CC[C@H](N(C)C)[C@@H](C)O2)[C@H](C)C[C@H](CC=O)[C@H](O[C@@H]2O[C@H](C)[C@@H](O[C@H]3C[C@@](C)(O)[C@@H](OC(=O)CC(C)C)[C@H](C)O3)[C@H](N(C)C)[C@H]2O)[C@H]1OC [Isovaleryl spiramycin III, isovaleryl spiramycin III]
Inhibition Rate (%) ([1]; 769-P nude mice, 25 mg/kg): 40.87%
Relative Tumor Proliferation Rate (T/C) ([1]; 769-P nude mice, 25 mg/kg): 61.59%
Relative Tumor Volume (RTV) ([1]; 769-P nude mice, 25 mg/kg): 11.37 ± 1.469
Tumor Weight ([1]; 769-P nude mice, 25 mg/kg): 1.22 ± 0.46 g
Tumor Volume (mm3) (d 1) ([1]; 769-P nude mice, 25 mg/kg): 146.32 ± 43.02 mm3
Tumor Volume (mm3) (d30) ([1]; 769-P nude mice, 25 mg/kg): 1663.32 ± 445.50 mm3
Inhibition Rate (%) ([1]; 769-P nude mice, 50 mg/kg): 60.50%
Relative Tumor Proliferation Rate (T/C) ([1]; 769-P nude mice, 50 mg/kg): 51.59%
Relative Tumor Volume (RTV) ([1]; 769-P nude mice, 50 mg/kg): 9.52 ± 1.67
Tumor Weight ([1]; 769-P nude mice, 50 mg/kg): 0.82 ± 0.06 g
Tumor Volume (mm3) (d 1) ([1]; 769-P nude mice, 50 mg/kg): 180.43 ± 51.70 mm3
Tumor Volume (mm3) (d30) ([1]; 769-P nude mice, 50 mg/kg): 1717.76 ± 524.33 mm3
Inhibition Rate (%) ([1]; 769-P nude mice, 100 mg/kg): 64.46%
Relative Tumor Proliferation Rate (T/C) ([1]; 769-P nude mice, 100 mg/kg): 36.55%
Relative Tumor Volume (RTV) ([1]; 769-P nude mice, 100 mg/kg): 6.56 ± 0.28
Tumor Weight ([1]; 769-P nude mice, 100 mg/kg): 0.73 ± 0.08 g
Tumor Volume (mm3) (d 1) ([1]; 769-P nude mice, 100 mg/kg): 104.38 ± 12.92 mm3
Tumor Volume (mm3) (d30) ([1]; 769-P nude mice, 100 mg/kg): 684.88 ± 62.28 mm3
Relative Tumor Proliferation Rate (T/C) [1, 5]: 35.55%
tumor growth inhibition rate [1, 5]: 64.46%
Relative Tumor Proliferation Rate (T/C) [1, 6]: 61.59%
tumor growth inhibition rate [1, 6]: 40.87%
tumor volume and relative tumor volume compared with the model group ([1]; 769-P, low, medium and high doses, P<0.05): significantly lower
Relative Tumor Proliferation Rate (T/C) [1, 7]: 51.59%
tumor growth inhibition rate [1, 7]: 60.50%
Body Weight (g) (d1) ([1]; mouse, in vivo, 25 mg/kg): 23.09 ± 1.90 g
Body Weight (g) (d30) ([1]; mouse, in vivo, 25 mg/kg): 22.72 ± 0.78 g
Body Weight (g) (d1) ([1]; mouse, in vivo, 50 mg/kg): 22.90 ± 1.00 g
Body Weight (g) (d30) ([1]; mouse, in vivo, 50 mg/kg): 21.43 ± 1.08 g
Body Weight (g) (d1) ([1]; mouse, in vivo, 100 mg/kg): 20.49 ± 1.14 g
Body Weight (g) (d30) ([1]; mouse, in vivo, 100 mg/kg): 22.28 ± 1.72 g
Spleen Index (%) ([3]; dose 13 mg/kg): 0.68 ± 0.15%
Thymus Index (%) ([3]; dose 13 mg/kg): 0.15 ± 0.06%
Spleen Index (%) ([3]; dose 26 mg/kg): 0.66 ± 0.21%
Thymus Index (%) ([3]; dose 26 mg/kg): 0.15 ± 0.05%
Spleen Index (%) ([3]; dose 52 mg/kg): 0.65 ± 0.26%
Thymus Index (%) ([3]; dose 52 mg/kg): 0.13 ± 0.02%
Relative Tumor Proliferation Rate (T/C) [4, 8]: 41.10%
tumor growth inhibition rate [4, 8]: 59.56%
Relative Tumor Proliferation Rate (T/C) [4, 9]: 68.16%
tumor growth inhibition rate [4, 9]: 15.45%
tumor volume and relative tumor volume compared with the model group ([4]; U251, low, medium and high doses, P<0.05): significantly lower
Relative Tumor Proliferation Rate (T/C) [4, 10]: 54.34%
tumor growth inhibition rate [4, 10]: 32.74%
Inhibition Rate (%) ([4]; U251 nude mice, 25 mg/kg): 15.45%
Relative Tumor Proliferation Rate (T/C) ([4]; U251 nude mice, 25 mg/kg): 68.16%
Relative Tumor Volume (RTV) ([4]; U251 nude mice, 25 mg/kg): 13.47 ± 1.67
Tumor Weight ([4]; U251 nude mice, 25 mg/kg): 1.17 ± 0.11 g
Tumor Volume (mm3) (d 1) ([4]; U251 nude mice, 25 mg/kg): 124.24 ± 10.18 mm3
Tumor Volume (mm3) (d30) ([4]; U251 nude mice, 25 mg/kg): 1413.41 ± 221.90 mm3
Inhibition Rate (%) ([4]; U251 nude mice, 50 mg/kg): 32.74%
Relative Tumor Proliferation Rate (T/C) ([4]; U251 nude mice, 50 mg/kg): 54.34%
Relative Tumor Volume (RTV) ([4]; U251 nude mice, 50 mg/kg): 12.63 ± 1.27
Tumor Weight ([4]; U251 nude mice, 50 mg/kg): 0.93 ± 0.12 g
Tumor Volume (mm3) (d 1) ([4]; U251 nude mice, 50 mg/kg): 121.24 ± 9.15 mm3
Tumor Volume (mm3) (d30) ([4]; U251 nude mice, 50 mg/kg): 1096.57 ± 173.49 mm3
Inhibition Rate (%) ([4]; U251 nude mice, 100 mg/kg): 59.56%
Relative Tumor Proliferation Rate (T/C) ([4]; U251 nude mice, 100 mg/kg): 41.10%
Relative Tumor Volume (RTV) ([4]; U251 nude mice, 100 mg/kg): 10.96 ± 0.82
Tumor Weight ([4]; U251 nude mice, 100 mg/kg): 0.56 ± 0.05 g
Tumor Volume (mm3) (d 1) ([4]; U251 nude mice, 100 mg/kg): 120.86 ± 6.34 mm3
Tumor Volume (mm3) (d30) ([4]; U251 nude mice, 100 mg/kg): 832.79 ± 182.98 mm3
Body Weight (g) (d1) ([4]; mouse, in vivo, 25 mg/kg): 20.96 ± 0.58 g
Body Weight (g) (d30) ([4]; mouse, in vivo, 25 mg/kg): 20.70 ± 0.51 g
Body Weight (g) (d1) ([4]; mouse, in vivo, 50 mg/kg): 21.25 ± 0.53 g
Body Weight (g) (d30) ([4]; mouse, in vivo, 50 mg/kg): 21.10 ± 0.60 g
Body Weight (g) (d1) ([4]; mouse, in vivo, 100 mg/kg): 21.33 ± 0.62 g
Body Weight (g) (d30) ([4]; mouse, in vivo, 100 mg/kg): 21.03 ± 0.55 g
